Data: US3971779A, “7-[2-(5-Amino-1,3,4-thiadiazol-2-ylthio)acetamido]cephalosporins” (American Home Products Corporation, priority 1975, dated 1976)
Values after ≈ are worked out from the molar mass of the structure shown. Like-named read-outs stand apart in the source and are kept apart here.

Tests used:
[1] = system: Salmonella paratyphi (SA PA) 11737; assay: agar serial dilution MIC; assay type: cell-based; conditions: Salmonella enterica, 18 h
Method: (§1) A stock solution of 7-[2-(4,5-dihydro-5-imino-1,3,4-thiadiazol-2-ylthio)acetamido]cephalosporanic acid as the hydrobromic acid addition salt containing 2,500 μg. of the active moiety is prepared in phosphate buffer. Two fold serial dilutions are prepared with phosphate buffer. One milliliter (ml.) quantities of each dilution are incorporated in 9 ml. seen agar in sterile Petri plates. The hardened surface is innoculated with test organisms using a Steers replicating device. The plates are incubated at 35° C. for 18 hours.
(§2) The test organisms are Bacillus subtilis (BA SU) 6633; Staphylococcus aureus (ST AU) 6538P, Smith CHP, and 3-180; Mycobacterium smegmatis (MY SM) 10143; Neisseria catarrhalis (NE CA) 8193; Pseudonomas aeruginosa (PS AE) 10145; Escherichia coli (ES CO) 9637, and 920; Escherichia intermedia (ES IN) 65-1; Salmonella paratyphi (SA PA) 11737; Enterobacter aerogenes (EN AE) 13048; Klebsiella pneumoniae (KL PN) 10031; Bordetella bronchiseptica (BO BR) 4617; Proteus vulgaris (PR VU) 6896; and Herellea species (HE SP) 9955. These organisms are grown for 18 hours in Brain heart infusion at 35° C. Prior to use the cultures are diluted 10 fold with the infusion, except in the case of Mycobacterium. The latter is grown in Emerson's broth for 5 days at 28° C. in shaker flasks and used undiluted.
(§3) A second preparation of 7-[2-(4,5-dihydro-5-imino-1,3,4-thiadiazol-2-ylthio)acetamido]cephalosporanic acid prepared as described in Example 1 is tested as described in Example 2. The minimum inhibitory concentrations obtained are as follows: […]

[2] = system: Staphylococcus aureus (ST AU) Smith; assay: agar serial dilution MIC; assay type: cell-based
Method: as §1, §2, §3

[3] = system: Staphylococcus aureaus CHP; assay: mice infected intraperitoneally, single dose six hours post-infection, deaths and CD50; assay type: in vivo; conditions: for ED50: Staphylococcus, po, single dose, mice; for Deaths / Total No. Treated: oral
Method: Mice are infected intraperitoneally with a standardized suspension of Staphylococcus aureaus CHP in 5% gastric mucin. The animals are randomized. Six hours post-infection a single dose of the compound indicated is administered by the route indicated. The animals are observed for a 30 day period and deaths are recorded daily. The CD50 for 14 and 30 days as determined by the method of Reed and Muench, American Journal of Hygiene (1938), for each compound is tabulated:
7-[2-(5-Acetylamino-1,3,4-thiadiazol-2-ylthio)acetamido]cephalosporanic acid is tested as described in Example 5.

Shigella flexneri 12025 = assay: agar serial dilution MIC; assay type: cell-based; conditions: Example 4
Method: as §1, §2
(§4) Following the procedure of Example 2 but substituting the organisms listed below the same preparation of 7-[2-(4,5-dihydro-5-imino-1,3,4-thiadiazol-2-ylthio)acetamido]cephalosporanic acid (Compound A) as used in Example 3, a third sample of the same compound, prepared as described in Example 1 (Compound B) and 7-[2-(5-acetamido-1,3,4-thiadiazol-2-ylthio)acetamido]cephalosporanic acid (Compound C) are tested to obtain the results shown: […]

Serratia rubidae 27593 = assay: agar serial dilution MIC; assay type: cell-based; conditions: Example 4
Method: as §1, §2, §4

Edwardsiella tarda 15947 = assay: agar serial dilution MIC; assay type: cell-based
Method: as §1, §2, §4

Proteus rettgeri 9918 = assay: agar serial dilution MIC; assay type: cell-based; conditions: Providencia rettgeri, Example 4
Method: as §1, §2, §4

[4] = system: Acinetobacter calcoaceticus 9957; assay: agar serial dilution MIC; assay type: cell-based
Method: as §1, §2, §4

[5] = system: Serratia marcescens 13880; assay: agar serial dilution MIC; assay type: cell-based; conditions: Example 4
Method: as §1, §2, §4

[6] = system: Enterobacter cloacae 13047; assay: agar serial dilution MIC; assay type: cell-based; conditions: Example 4
Method: as §1, §2, §4

[7] = system: Klebsiella rhinoscleromatis 13884; assay: agar serial dilution MIC; assay type: cell-based; conditions: Klebsiella pneumoniae, Example 4
Method: as §1, §2, §4

[8] = system: Enterobacter havniae 11604; assay: agar serial dilution MIC; assay type: cell-based; conditions: Example 4
Method: as §1, §2, §4

[9] = system: Providencia stuartii 25825; assay: agar serial dilution MIC; assay type: cell-based; conditions: Example 4
Method: as §1, §2, §4

[10] = system: Citrobacter freundii 8090; assay: agar serial dilution MIC; assay type: cell-based; conditions: Example 4
Method: as §1, §2, §4

[11] = system: Citrobacter diversus 27156; assay: agar serial dilution MIC; assay type: cell-based; conditions: Citrobacter koseri, Example 4
Method: as §1, §2, §4

Salmonella typhi 19430 = assay: agar serial dilution MIC; assay type: cell-based; conditions: Salmonella enterica
Method: as §1, §2, §4

[12] = system: Klebsiella pneumoniae 13883; assay: agar serial dilution MIC; assay type: cell-based
Method: as §1, §2, §4

[13] = system: Salmonella enteritidis 13076; assay: agar serial dilution MIC; assay type: cell-based; conditions: Salmonella enterica, Example 4
Method: as §1, §2, §4

Proteus mirabilis 9921 = assay: agar serial dilution MIC; assay type: cell-based; conditions: Example 4
Method: as §1, §2, §4

[14] = system: Serratia liquefaciens 27592; assay: agar serial dilution MIC; assay type: cell-based; conditions: Example 4
Method: as §1, §2, §4

Shigella boydii 9207 = assay: agar serial dilution MIC; assay type: cell-based; conditions: Example 4
Method: as §1, §2, §4

Arizona arizonae 13314 = assay: agar serial dilution MIC; assay type: cell-based
Method: as §1, §2, §4

[15] = system: Salmonella cholera-suis 13312; assay: agar serial dilution MIC; assay type: cell-based
Method: as §1, §2, §4

[16] = system: Providencia alcalifaciens 9886; assay: agar serial dilution MIC; assay type: cell-based; conditions: Example 4
Method: as §1, §2, §4

[17] = system: Enterobacter agglomerans 27155; assay: agar serial dilution MIC; assay type: cell-based
Method: as §1, §2, §4

Klebsiella ozaenae 11296 = assay: agar serial dilution MIC; assay type: cell-based
Method: as §1, §2, §4

Shigella sonnei 11060 = assay: agar serial dilution MIC; assay type: cell-based; conditions: Example 4
Method: as §1, §2, §4

For `CC(=O)OCC1=C(C(=O)O)N2C(=O)C(NC(=O)CSc3n[nH]c(=N)s3)C2SC1` (stereo not shown) [7-[2-(4,5-Dihydro-5-Imino-1,3,4-Thiadiazol-2-ylthio)Acetamido]Cephalosporanic Acid], the MIC ([1]; read-out: minimum concentration (MIC) required to completely inhibit growth) was 3.9 µg/mL (≈ 8.75 µM), the MIC ([1]; read-out: minimum inhibitory concentration (MIC)) was 3.9 µg/mL (≈ 8.75 µM) and the MIC ([2]; 18 h, second preparation (Example 3), read-out: minimum inhibitory concentration (MIC)) was 0.488 µg/mL (≈ 1.1 µM). The MIC ([2]; first preparation (Example 2), HBr salt, 35° C., 18 hours, read-out: minimum concentration (MIC) required to completely inhibit growth) was 0.244 µg/mL, the ED50 ([3]; 336 h, 14 Days) was 3.21 mg/kg and the ED50 ([3]; 720 h, 30 Days) was 3.4 mg/kg. The “Deaths / Total No. Treated” value ([3]; 100 mg/kg., 14 Days) was 10/10, the “Deaths / Total No. Treated” value ([3]; 100 mg/kg., 30 Days) was 10/10 and the “Deaths / Total No. Treated” value ([3]; 200 mg/kg., 14 Days) was 4/10. For the same molecule, the “Deaths / Total No. Treated” value ([3]; 200 mg/kg., 30 Days) was 4/10, the “Deaths / Total No. Treated” value ([3]; 400 mg/kg., 14 Days) was 0/10 and the “Deaths / Total No. Treated” value ([3]; 400 mg/kg., 30 Days) was 0/10. For the same molecule, the “Deaths / Total No. Treated” value ([3]; 800 mg/kg., 14 Days) was 0/10, the “Deaths / Total No. Treated” value ([3]; 800 mg/kg., 30 Days) was 1/10 and the MIC (Shigella flexneri 12025; listed as A) was 31.3 µg/mL (≈ 70.3 µM). It also gave an MIC (Shigella flexneri 12025; listed as B) of 7.81 µg/mL (≈ 17.5 µM), an MIC (Serratia rubidae 27593) greater than 250 µg/mL and an MIC (Edwardsiella tarda 15947; Edwardsiella tarda, 15947, Example 4) of 31.3 µg/mL (≈ 70.3 µM). It also gave an MIC (Edwardsiella tarda 15947; Edwardsiella tarda, 15947, Example 4, read-out: MIC) of 15.6 µg/mL (≈ 35 µM), an MIC (Proteus rettgeri 9918) of 250 µg/mL (≈ 561 µM) and an MIC [4] of 7.81 µg/mL (≈ 17.5 µM). It also gave an MIC [5] greater than 250 µg/mL, an MIC [6] greater than 250 µg/mL and an MIC [7] greater than 250 µg/mL. For the same molecule, the MIC [8] was greater than 250 µg/mL, the MIC [9] was 250 µg/mL (≈ 561 µM) and the MIC [10] was greater than 250 µg/mL. It also gave an MIC [11] of 1.95 µg/mL (≈ 4.38 µM), an MIC (Salmonella typhi 19430) of 1.95 µg/mL (≈ 4.38 µM) and an MIC ([12]; Klebsiella pneumoniae, 13883, Example 4) of 7.81 µg/mL (≈ 17.5 µM). It also gave an MIC ([12]; Klebsiella pneumoniae, 13883, Example 4, read-out: MIC) of 15.6 µg/mL (≈ 35 µM), an MIC [13] of 1.95 µg/mL (≈ 4.38 µM) and an MIC (Proteus mirabilis 9921) of 7.81 µg/mL (≈ 17.5 µM). It also gave an MIC [14] greater than 250 µg/mL, an MIC (Shigella boydii 9207) of 62.5 µg/mL (≈ 140 µM) and an MIC (Arizona arizonae 13314; Salmonella enterica, 13314, Example 4) of 1.95 µg/mL (≈ 4.38 µM). For the same molecule, the MIC (Arizona arizonae 13314; Salmonella enterica, 13314, Example 4, read-out: MIC) was 3.9 µg/mL (≈ 8.75 µM), the MIC [15] was 1.95 µg/mL (≈ 4.38 µM) and the MIC [16] was greater than 250 µg/mL. The MIC ([17]; Pantoea agglomerans, 27155, Example 4) was 7.81 µg/mL (≈ 17.5 µM), the MIC ([17]; Pantoea agglomerans, 27155, Example 4, read-out: MIC) was 15.6 µg/mL (≈ 35 µM) and the MIC (Klebsiella ozaenae 11296) was 1.95 µg/mL (≈ 4.38 µM). The MIC (Shigella sonnei 11060) was 62.5 µg/mL (≈ 140 µM).
